Patent US20220326218A1, “COMPOSITION AND METHOD FOR INHIBITING BORC COMPLEX TO TREAT CANCERS WITH NF1 DEFICIENCY AND DYSREGULATED RAS SIGNALING” (THE TRUSTEES OF DARTMOUTH COLLEGE, priority 2019, published 2022)

What was measured:
Format in all cases: cell-based, human
[1] = tested on: sNF96.2 cells; test: Hoechst cell death viability assay, sNF96.2; conditions: sNF96.2 MPNST cells, up to 3 days, 100 μM to 0.039 μM, Hoechst 33258
Experimental: Cells were plated at 2,500 cells/well in 96-well plates and allowed to adhere overnight. Medium was removed and replaced with media containing compound starting at 100 μM, followed by 2-fold serial dilutions to generate a 10-point range of concentrations normalized with DMSO; one row was treated with DMSO as a control. Cells were incubated for the indicated timepoints. Upon collection, media was removed, cells were rinsed with PBS, and stored at −80° C. until all plates were collected. To process cells, plates were thawed with PBS, incubated with 1× saline-sodium citrate (SSC) buffer with 0.02% sodium dodecyl sulfate (SDS) for 1 hour at 37° C., followed by staining with 1 μg/mL Hoechst 33258 (Pierce). […] using a Spectramax M2 at an excitation of 355 nm and an emission of 460 nm, and absorbance was normalized to DMSO. Each experiment was repeated 2-3 times with 4 technical replicates per experiment.

[2] = tested on: BNIP3L/Nix; test: qPCR of BNIP3L/Nix transcript; conditions: U87-MG
[3] = tested on: γ-H2AX; test: Immunofluorescence staining for DNA damage marker γ-H2AX; conditions: U87-MG, 2 μM, 24 h
Experimental: U87-MG cells were plated at a concentration of 50,000 cells/well onto precoated poly-D-lysine (PDL) coverslips (Neuvitro) in 24-well plates (Falcon) and allowed to adhere overnight. Medium was removed and replaced with treatment-laced media normalized to DMSO, and cells were treated for the indicated timepoints. At the time of collection, cells were washed with PBS and fixed with 4% paraformaldehyde without methanol (EMS) or 100% methanol (Fischer). Coverslips were washed with Tween20-containing PBS (PBST; Fischer). Following permeabilization with 0.5% Triton X-100 in PBS (Fischer), coverslips were blocked for 1 h at room temperature in IF Buffer (0.05% azide, 0.2% Triton X-100, 2% Normal Goat Serum or, for 8-OHG, Normal Donkey Serum). The following primary antibodies were used for 1 hour at room temperature unless specified: AlexaFluor 488 pre-conjugated anti-γ-H2AX (N1-431) mouse monoclonal (30 minutes; BD Biosciences), anti-cleaved caspase 3 (Asp175) rabbit polyclonal (Cell Signaling), anti-SQSTM1/p62 (D-3) mouse monoclonal (Santa Cruz), anti-8-Hydroxyguanosine goat polyclonal (1:200; Millipore), anti-LAMP1 (D4O1S) mouse monoclonal (O/N at 4° C.; Cell Signaling), anti-BNIP3L/Nix (D4R4B) rabbit monoclonal (O/N at 4° C.; Cell Signaling), anti-FLAG (M2) mouse monoclonal (2 hours at 37° C.; Sigma-Aldrich). […]

[4] = tested on: BNIP3L/Nix; test: Western immunoblotting of BNIP3L/Nix; conditions: U87-MG, 2 μM, 24 h, 20 μM QVD pre-treatment
Experimental: U87-MG cells were plated at 500,000 cells/well in 6-well plates and allowed to adhere overnight (Falcon). Medium was removed and replaced with fresh medium containing drugs or compounds for the indicated timepoints. Cells were collected after treatment by washing with PBS, harvested with trypsin plus agitation to detach cells, pelleted in a centrifuge and resuspended in PBS to wash. Cells were transferred to 1.5 mL microcentrifuge tubes, pelleted, and resuspended in RIPA lysis buffer (50 mM Tris pH 8.0, 150 mM NaCl, 1% nonidet P40, 0.5% sodium deoxycholate, and 0.05% SDS) containing 1 mM NaVO4, 1 mM NaF, 1 mM phenylmethylsulfonyl fluoride, 0.1 μg/mL antipain, 1 μM aprotinin, 100 μM benzamidine HCl, 0.1 μg/mL leupeptin, 0.1 μg/mL pepstatin, and 0.1 μg/mL soybean trypsin inhibitor. Protein was quantified using a BCA assay kit (Pierce). 50 μg of protein was prepared in 1× Laemmli sample buffer (50 mM Tris pH 6.8, 0.02% w/v bromophenol blue, 2% w/v SDS, 10% v/v glycerol, 1% v/v beta-mercaptoethanol, 12.5 mM EDTA) and separated by SDS-PAGE on a 4-15% polyacrylamide gradient gel (Bio-Rad). […]

Cn1cnnc1S/C=C/C(=O)c1ccc(F)cc1 [Y102]
sensitivity of NF1-deficient cell line to treatment [1]: sensitive | BNIP3L/Nix RNA levels versus DMSO [2]: little difference | change in γ-H2AX expression [3]: no significant change | BNIP3L/Nix protein levels versus DMSO [4]: little difference
